# Laboratory results as given in PubChem BioAssay (NCI).
#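 Results reflect a 48-hour exposure of cells in 96-well plates to compound at five concentrations. GI50 is the concentration that inhibits growth by half. TGI: total growth inhibition.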
# Columns and labels:
# Assay in all cases: NCI-60 cell line screen, 48 h
# PC-3 prostate = test system: PC-3 prostate
# HOP-62 NSCLC = test system: HOP-62 NSCLC
# SF-539 CNS = test system: SF-539 CNS
# OVCAR-8 ovarian = test system: OVCAR-8 ovarian
# RPMI-8226 leukemia = test system: RPMI-8226 leukemia
# UO-31 renal = test system: UO-31 renal
# EKVX NSCLC = test system: EKVX NSCLC
# T-47D breast = test system: T-47D breast
# TK-10 renal = test system: TK-10 renal
# SK-MEL-5 melanoma = test system: SK-MEL-5 melanoma
# HOP-92 NSCLC = test system: HOP-92 NSCLC
# SNB-75 CNS = test system: SNB-75 CNS
# SF-295 CNS = test system: SF-295 CNS
# MDA-MB-435 = test system: MDA-MB-435
# MALME-3M melanoma = test system: MALME-3M melanoma
# SF-268 CNS = test system: SF-268 CNS
# UACC-257 melanoma = test system: UACC-257 melanoma
# OVCAR-4 ovarian = test system: OVCAR-4 ovarian
# M14 melanoma = test system: M14 melanoma
# COLO 205 colon = test system: COLO 205 colon
# A498 renal = test system: A498 renal
# NCI-H522 lung = test system: NCI-H522 lung
# UACC-62 melanoma = test system: UACC-62 melanoma
# K-562 leukemia = test system: K-562 leukemia
# MDA-MB-231 breast = test system: MDA-MB-231 breast
# A549 NSCLC = test system: A549 NSCLC
# CCRF-CEM leukemia = test system: CCRF-CEM leukemia
# NCI-H23 lung = test system: NCI-H23 lung
# MOLT-4 leukemia = test system: MOLT-4 leukemia
# ACHN renal = test system: ACHN renal
# CAKI-1 renal = test system: CAKI-1 renal
# HL-60(TB) leukemia = test system: HL-60(TB) leukemia
# SK-MEL-28 melanoma = test system: SK-MEL-28 melanoma
# 786-0 renal = test system: 786-0 renal
# HT29 colon = test system: HT29 colon
# HCT-116 colon = test system: HCT-116 colon
# RXF 393 renal = test system: RXF 393 renal
# HCC-2998 colon = test system: HCC-2998 colon
# BT-549 breast = test system: BT-549 breast
# SK-OV-3 ovarian = test system: SK-OV-3 ovarian
# U251 CNS = test system: U251 CNS
# SK-MEL-2 melanoma = test system: SK-MEL-2 melanoma
# NCI-H460 lung = test system: NCI-H460 lung
# SN12C renal = test system: SN12C renal
# OVCAR-5 ovarian = test system: OVCAR-5 ovarian
# SNB-19 CNS = test system: SNB-19 CNS
# HCT-15 colon = test system: HCT-15 colon
# IGROV1 ovarian = test system: IGROV1 ovarian
# NCI-H226 lung = test system: NCI-H226 lung
# OVCAR-3 ovarian = test system: OVCAR-3 ovarian
# HS 578T breast = test system: HS 578T breast
# SR leukemia = test system: SR leukemia
# MCF7 breast = test system: MCF7 breast
# KM12 colon = test system: KM12 colon
# SW-620 colon = test system: SW-620 colon
# DU-145 prostate = test system: DU-145 prostate
# LOX IMVI melanoma = test system: LOX IMVI melanoma
# NCI/ADR-RES ovarian = test system: NCI/ADR-RES ovarian
smiles,measurement,setting,value
O=S1CCN(Cc2ccc(-c3ccc4ncnc(Nc5ccc(OCc6ccccc6)c(Cl)c5)c4c3)o2)CC1,GI50,PC-3 prostate,11.8 µM
same,TGI,PC-3 prostate,> 25 µM
same,GI50,HOP-62 NSCLC,> 25 µM
same,TGI,HOP-62 NSCLC,> 25 µM
same,GI50,SF-539 CNS,> 15.3 µM
same,TGI,SF-539 CNS,> 25 µM
same,GI50,OVCAR-8 ovarian,11.7 µM
same,TGI,OVCAR-8 ovarian,> 25 µM
same,GI50,RPMI-8226 leukemia,12.4 µM
same,TGI,RPMI-8226 leukemia,> 25 µM
same,GI50,UO-31 renal,6.32 µM
same,TGI,UO-31 renal,> 25 µM
same,GI50,EKVX NSCLC,0.112 µM
same,TGI,EKVX NSCLC,> 19.9 µM
same,GI50,T-47D breast,5.72 µM
same,TGI,T-47D breast,> 25 µM
same,GI50,TK-10 renal,0.116 µM
same,TGI,TK-10 renal,> 25 µM
same,GI50,SK-MEL-5 melanoma,7.9 µM
same,TGI,SK-MEL-5 melanoma,> 15.7 µM
same,GI50,HOP-92 NSCLC,4.91 µM
same,TGI,HOP-92 NSCLC,> 21.2 µM
same,GI50,SNB-75 CNS,> 16.6 µM
same,TGI,SNB-75 CNS,> 25 µM
same,GI50,SF-295 CNS,9.76 µM
same,TGI,SF-295 CNS,> 25 µM
same,GI50,MDA-MB-435,8.95 µM
same,TGI,MDA-MB-435,> 25 µM
same,GI50,MALME-3M melanoma,10.1 µM
same,TGI,MALME-3M melanoma,> 25 µM
same,GI50,SF-268 CNS,> 22.3 µM
same,TGI,SF-268 CNS,> 25 µM
same,GI50,UACC-257 melanoma,8.55 µM
same,TGI,UACC-257 melanoma,> 25 µM
same,GI50,OVCAR-4 ovarian,13.5 µM
same,TGI,OVCAR-4 ovarian,> 25 µM
same,GI50,M14 melanoma,10 µM
same,TGI,M14 melanoma,> 25 µM
same,GI50,COLO 205 colon,11.7 µM
same,TGI,COLO 205 colon,> 25 µM
same,GI50,A498 renal,5.82 µM
same,TGI,A498 renal,24.3 µM
same,GI50,NCI-H522 lung,3.68 µM
same,TGI,NCI-H522 lung,> 25 µM
same,GI50,UACC-62 melanoma,10.7 µM
same,TGI,UACC-62 melanoma,> 23.4 µM
same,GI50,K-562 leukemia,10.1 µM
same,TGI,K-562 leukemia,> 25 µM
same,GI50,MDA-MB-231 breast,14.9 µM
same,TGI,MDA-MB-231 breast,> 25 µM
same,GI50,A549 NSCLC,8.02 µM
same,TGI,A549 NSCLC,> 25 µM
same,GI50,CCRF-CEM leukemia,9.07 µM
same,TGI,CCRF-CEM leukemia,> 25 µM
same,GI50,NCI-H23 lung,13.3 µM
same,TGI,NCI-H23 lung,> 25 µM
same,GI50,MOLT-4 leukemia,9.06 µM
same,TGI,MOLT-4 leukemia,> 25 µM
same,GI50,ACHN renal,0.656 µM
same,TGI,ACHN renal,> 25 µM
same,GI50,CAKI-1 renal,0.635 µM
same,TGI,CAKI-1 renal,> 25 µM
same,GI50,HL-60(TB) leukemia,10.6 µM
same,TGI,HL-60(TB) leukemia,> 20.7 µM
same,GI50,SK-MEL-28 melanoma,14 µM
same,TGI,SK-MEL-28 melanoma,> 25 µM
same,GI50,786-0 renal,10.7 µM
same,TGI,786-0 renal,> 25 µM
same,GI50,HT29 colon,6.9 µM
same,TGI,HT29 colon,> 18.8 µM
same,GI50,HCT-116 colon,11.3 µM
same,TGI,HCT-116 colon,> 25 µM
same,GI50,RXF 393 renal,> 15.3 µM
same,TGI,RXF 393 renal,> 25 µM
same,GI50,HCC-2998 colon,7.19 µM
same,TGI,HCC-2998 colon,23.4 µM
same,GI50,BT-549 breast,9.62 µM
same,TGI,BT-549 breast,> 20.5 µM
same,GI50,SK-OV-3 ovarian,0.0917 µM
same,TGI,SK-OV-3 ovarian,> 25 µM
same,GI50,U251 CNS,14.9 µM
same,TGI,U251 CNS,> 25 µM
same,GI50,SK-MEL-2 melanoma,7.46 µM
same,TGI,SK-MEL-2 melanoma,16.7 µM
same,GI50,NCI-H460 lung,10.2 µM
same,TGI,NCI-H460 lung,> 25 µM
same,GI50,SN12C renal,14.8 µM
same,TGI,SN12C renal,> 25 µM
same,GI50,OVCAR-5 ovarian,12.1 µM
same,TGI,OVCAR-5 ovarian,> 25 µM
same,GI50,SNB-19 CNS,> 25 µM
same,TGI,SNB-19 CNS,> 25 µM
same,GI50,HCT-15 colon,7.78 µM
same,TGI,HCT-15 colon,> 25 µM
same,GI50,IGROV1 ovarian,0.561 µM
same,TGI,IGROV1 ovarian,> 25 µM
same,GI50,NCI-H226 lung,> 16.5 µM
same,TGI,NCI-H226 lung,> 25 µM
same,GI50,OVCAR-3 ovarian,8.08 µM
same,TGI,OVCAR-3 ovarian,> 25 µM
same,GI50,HS 578T breast,> 21.6 µM
same,TGI,HS 578T breast,> 25 µM
same,GI50,SR leukemia,7.57 µM
same,TGI,SR leukemia,> 25 µM
same,GI50,MCF7 breast,> 15.2 µM
same,TGI,MCF7 breast,> 25 µM
same,GI50,KM12 colon,9.22 µM
same,TGI,KM12 colon,> 25 µM
same,GI50,SW-620 colon,8.63 µM
same,TGI,SW-620 colon,> 25 µM
same,GI50,DU-145 prostate,7.52 µM
same,TGI,DU-145 prostate,> 25 µM
same,GI50,LOX IMVI melanoma,8.51 µM
same,TGI,LOX IMVI melanoma,> 16.9 µM
same,GI50,NCI/ADR-RES ovarian,8.08 µM
same,TGI,NCI/ADR-RES ovarian,> 25 µM
